{"source": "patent US20060034848A1", "about": "“Methods and compositions for treating Alzheimer's disease” (priority 2003, published 2006)", "tested_on": "LRP-CTF", "test": "LRP C-terminal fragment (CTF) western after DAPT treatment", "assay_type": "cell-based, mouse", "conditions": "N2a cells cotransfected with LC-myc and empty vector, BACE or catalytically inactive BACE; DAPT treatment for 12 h vs vehicle", "description": "FIG. 11 depicts a LRP CTF western. […] Shown is the intensity of a representative blot out four experiments without DAPT treatment and two with DAPT treatment.\nThe proteins were transferred to immobilon-P membrane (Millipore, Bedford, Mass.). Staining was performed according to Licor odyssey instructions and LRP light chain was detected by rabbit anti-myc Ab with 680 gt anti rabbit secondary and visualized on the Licor odyssey.\nAfter cotransfection of LRP with BACE we saw an increase of LRP-CTF as well as in non-treated cells and even more after DAPT treatment.", "note": "Entries after “also recorded” stand apart in the source; their conditions may differ."}
{"smiles": "C[C@H](NC(=O)Cc1cc(F)cc(F)c1)C(=O)N[C@H](C(=O)OC(C)(C)C)c1ccccc1", "note": "[DAPT]", "values": [{"measurement": "LRP-CTF 25 kDa band intensity (western blot)", "result": "increase of the LRP-CTF 25 kDa band; also recorded: increase of CTF intensity"}]}
